What was measured:
Type in all cases: cell-based
[1] = tested on: MKN45; experiment: Anti-proliferation assay (CellTiter-Glo 2.0), combination index, MKN45; settings: for Description: combination effect
Description: (§1) Cell lines were obtained from ATCC or Health Science Research Resources Bank.
(§2) Each cell lines were collected by ordinary method, then suspended in indicated medium containing 10% fetal bovine serum in table 3. The number of cells seeded per well was set to 500 cells/20 μL. […] The concentration of each anti-cancer reagents set to 8 concentrations including 0 nM. After adding the medicine to the cells, the cells were further incubated at 37° C. for 3 days under 5% CO2. Cell survival rates were calculated by adding 20 μL of CellTiter-Glo(registered trademark) 2. 0 (Promega) solution to each well, incubating the cells at room temperature for 10 minutes, and then measuring the chemiluminescence intensity of each well using a plate reader (ARVO).
(§3) A combination index (CI) value at each combined concentration of the medicines was determined.

[2] = tested on: NCI-H358; experiment: Anti-proliferation assay (CellTiter-Glo 2.0), combination index, NCI-H358
Description: as §1, §2, §3

[3] = tested on: RT4; experiment: Anti-proliferation assay (CellTiter-Glo 2.0), combination index, RT4; settings: for Description: combination effect
Description: as §1, §2, §3

[4] = Compound 1 13.7 + combination drug 123 nmol/L (1:9)
[5] = Compound 1 41.2 + combination drug 370 nmol/L (1:9)
[6] = Compound 1 123 + combination drug 1110 nmol/L (1:9)
[7] = Compound 1 370 + combination drug 3330 nmol/L (1:9)
[8] = Compound 1 4.57 + combination drug 41.2 nmol/L (1:9)
[9] = Compound 1 1110 + combination drug 10000 nmol/L (1:9)
[10] = Compound 1 4.57 nmol/L + Cisplatin 370 nmol/L, molar ratio 1:81
[11] = Compound 1 13.7 nmol/L + Cisplatin 1110 nmol/L, molar ratio 1:81
[12] = Compound 1 41.2 nmol/L + Cisplatin 1110 nmol/L, molar ratio 1:27
[13] = Compound 1 123 nmol/L + Cisplatin 3330 nmol/L, molar ratio 1:27
[14] = Compound 1 370 nmol/L + Cisplatin 10000 nmol/L, molar ratio 1:27
[15] = Compound 1 123 + combination drug 41.2 nmol/L (1:0.3)
[16] = Compound 1 370 + combination drug 123 nmol/L (1:0.3)
[17] = Compound 1 1110 + combination drug 370 nmol/L (1:0.3)
[18] = Compound 1 3330 + combination drug 1110 nmol/L (1:0.3)
[19] = Compound 1 10000 + combination drug 3330 nmol/L (1:0.3)
[20] = Compound 1 41.2 nmol/L + 5-FU 3330 nmol/L, molar ratio 1:81
[21] = Compound 1 123 nmol/L + 5-FU 10000 nmol/L, molar ratio 1:81
[22] = Compound 1 370 nmol/L + FTD 123 nmol/L, molar ratio 1:0.3
[23] = Compound 1 1110 nmol/L + FTD 370 nmol/L, molar ratio 1:0.3
[24] = Compound 1 3330 nmol/L + FTD 1110 nmol/L, molar ratio 1:0.3
[25] = Compound 1 123 nmol/L + FTD 3330 nmol/L, molar ratio 1:27
[26] = Compound 1 370 nmol/L + FTD 10000 nmol/L, molar ratio 1:27
[27] = Compound 1 12.3 nmol/L + Gemcitabine 1.23 nmol/L, molar ratio 1:0.1
[28] = Compound 1 37.0 nmol/L + Gemcitabine 3.70 nmol/L, molar ratio 1:0.1

Cn1cnc2c(F)c(Nc3ccc(Br)cc3F)c(C(=O)NOCCO)cc21 [Binimetinib]
CI [1, 4]: 0.630
Fa [1, 4]: 0.2390
CI [1, 5]: 0.387
Fa [1, 5]: 0.5003
CI [1, 6]: 0.212
Fa [1, 6]: 0.7765
CI [1, 7]: 0.360
Fa [1, 7]: 0.8408
CI [2, 8]: 0.883
Fa [2, 8]: 0.0312
CI [2, 4]: 0.223
Fa [2, 4]: 0.1821
CI [2, 5]: 0.196
Fa [2, 5]: 0.3954
CI [2, 6]: 0.222
Fa [2, 6]: 0.6241
CI [2, 7]: 0.349
Fa [2, 7]: 0.7635
CI [2, 9]: 0.673
Fa [2, 9]: 0.8387

N.N.[Cl][Pt][Cl] [Cisplatin]
CI [3, 10]: 0.632
Fa [3, 10]: 0.0886
CI [3, 11]: 0.539
Fa [3, 11]: 0.2585
Description ([3]; Compound 1 + Cisplatin, molar ratio 1:81): Synergy (0.3-0.7)
CI [1, 12]: 0.694
Fa [1, 12]: 0.2057
CI [1, 13]: 0.626
Fa [1, 13]: 0.5148
CI [1, 14]: 0.681
Fa [1, 14]: 0.8006
Description ([1]; Compound 1 + Cisplatin, molar ratio 1:27): Synergy (0.3-0.7)

O=C(c1ccc(F)c(F)c1Nc1ccc(I)cc1F)N1CC(O)([C@@H]2CCCCN2)C1 [Cobimetinib]
CI [1, 4]: 0.806
Fa [1, 4]: 0.2247
CI [1, 5]: 0.459
Fa [1, 5]: 0.6457
CI [1, 6]: 0.616
Fa [1, 6]: 0.8262
Description (combinatory effect by CI) ([1]; Compound 1:combination drug molar ratio 1:9): Synergy (0.3-0.7)
CI [2, 15]: 0.334
Fa [2, 15]: 0.3595
CI [2, 16]: 0.172
Fa [2, 16]: 0.5769
CI [2, 17]: 0.165
Fa [2, 17]: 0.7439
CI [2, 18]: 0.258
Fa [2, 18]: 0.8360
CI [2, 19]: 0.585
Fa [2, 19]: 0.8699

O=c1[nH]cc(F)c(=O)[nH]1 [Compound 5-FU]
CI [1, 20]: 0.738
Fa [1, 20]: 0.4610
CI [1, 21]: 0.399
Fa [1, 21]: 0.7197
Description ([1]; Compound 1 + 5-FU, molar ratio 1:81): Synergy (0.3-0.7)

O=c1[nH]c(=O)n([C@H]2C[C@H](O)[C@@H](CO)O2)cc1C(F)(F)F [FTD]
CI [3, 22]: 0.468
Fa [3, 22]: 0.4667
CI [3, 23]: 0.676
Fa [3, 23]: 0.6009
CI [3, 24]: 0.618
Fa [3, 24]: 0.7931
Description ([3]; Compound 1 + FTD, molar ratio 1:0.3): Synergy (0.3-0.7)
CI [1, 25]: 0.716
Fa [1, 25]: 0.6654
CI [1, 26]: 0.494
Fa [1, 26]: 0.8785
Description ([1]; Compound 1 + FTD, molar ratio 1:27): Synergy (0.3-0.7)

Nc1ccn([C@@H]2O[C@H](CO)[C@@H](O)C2(F)F)c(=O)n1 [Gemcitabine]
CI [1, 27]: 0.698
Fa [1, 27]: 0.2152
CI [1, 28]: 0.878
Fa [1, 28]: 0.4083
Description ([1]; Compound 1 + Gemcitabine, molar ratio 1:0.1): Synergy (0.3-0.7)
